In patent US8481502B2, “Antibacterial aminoglycoside analogs” (Achaogen, Inc., priority 2009, dated 2013) one finds MIC data, which are given here for eight molecules.

≈ marks a conversion by molar mass, not a printed value. A value given as a limit tells only on which side of the number the result lay.

Experiment [1] deals with P. aeruginosa ATCC 27853 (APAE001). Put plainly: MIC assay, CLSI broth microdilution, APAE001. It counts as cell-based. The note with it: Pseudomonas aeruginosa; APAE001 is ATCC27853; Mueller Hinton Broth, 35 C, 20 hours. On the procedure: (§1) Minimum inhibitory concentrations (MIC) were determined by reference Clinical and Laboratory Standards Institute (CLSI) broth microdilution methods per M7-A7 [2006]. Quality control ranges utilizing E. coli ATCC 25922, P. aeruginosa ATCC 27853 and S. aureus ATCC 29213, and interpretive criteria for comparator agents were as published in CLSI M100-S17 [2007]. Briefly, serial two-fold dilutions of the test compounds were prepared at 2× concentration in Mueller Hinton Broth. The compound dilutions were mixed in 96-well assay plates in a 1:1 ratio with bacterial inoculum. The inoculum was prepared by suspension of a colony from an agar plate that was prepared the previous day. Bacteria were suspended in sterile saline and added to each assay plate to obtain a final concentration of 5×10^5 CFU/mL. The plates were incubated at 35 C for 20 hours in ambient air.

The test system of experiment [2] is E. coli ATCC 25922 (AECO001). Briefly: MIC assay, CLSI broth microdilution, AECO001. The settings on record: Escherichia coli; AECO001 is ATCC25922; Mueller Hinton Broth, 35 C, 20 hours. The format is cell-based. The method, then: as §1

As for `NC[C@@H](O)[C@H](O)C(=O)N[C@@H]1C[C@H](N)[C@@H](O[C@H]2O[C@H](CN)[C@@H](O)C[C@H]2N)[C@H](O[C@@H]2O[C@H](CO)[C@@H](O[C@H]3O[C@@H](CN)[C@@H](O)[C@H](O)[C@H]3N)[C@H]2O)[C@H]1O` [1/11], the MIC in experiment [1] is ≤ 1 µg/mL; in experiment [2], 1 to 16 µg/mL (≈ 1.4 to 22.4 µM).

Take `NC[C@@H]1O[C@H](O[C@H]2[C@@H](O)[C@H](O[C@@H]3[C@@H](O)[C@H](NC(=O)[C@@H](O)[C@@H](O)CN)C[C@H](N)[C@H]3O[C@H]3O[C@H](CN)[C@@H](O)C[C@H]3N)O[C@@H]2CO)[C@H](N)[C@@H](O)[C@@H]1O` [2/3]: the values for the MIC in experiment [1] and in experiment [2] were ≤ 1 µg/mL and 1 to 16 µg/mL (≈ 1.4 to 22.4 µM), respectively.

Turning to `NC[C@@H](F)[C@H](O)C(=O)N[C@@H]1C[C@H](N)[C@@H](O[C@H]2O[C@H](CN)[C@@H](O)C[C@H]2N)[C@H](O[C@@H]2O[C@H](CO)[C@@H](O[C@H]3O[C@@H](CN)[C@@H](O)[C@H](O)[C@H]3N)[C@H]2O)[C@H]1O` [3/3], the MIC in experiment [1] and in experiment [2] was ≤ 1 µg/mL in each case.

With `NC[C@@H]1O[C@H](O[C@H]2[C@@H](O)[C@H](O[C@@H]3[C@@H](O)[C@H](NC(=O)[C@@H](O)C(F)(F)CN)C[C@H](N)[C@H]3O[C@H]3O[C@H](CN)[C@@H](O)C[C@H]3N)O[C@@H]2CO)[C@H](N)[C@@H](O)[C@@H]1O` [4/3], the figures for the MIC in experiment [1] and in experiment [2] were ≤ 1 µg/mL and 1 to 16 µg/mL (≈ 1.36 to 21.7 µM), respectively.

Turning to `NC[C@@H]1C[C@@H](O)[C@@H](N)[C@@H](O[C@H]2[C@H](O[C@@H]3O[C@H](CO)[C@@H](O[C@H]4O[C@@H](CN)[C@@H](O)[C@H](O)[C@H]4N)[C@H]3O)[C@@H](O)[C@H](NC(=O)[C@@H](O)[C@H](O)CN)C[C@@H]2N)O1` [5/12], the MIC in experiment [1] is ≤ 1 µg/mL; in experiment [2], 1 to 16 µg/mL (≈ 1.4 to 22.4 µM).

As for `NC[C@@H]1C[C@@H](O)[C@@H](N)[C@@H](O[C@H]2[C@H](O[C@@H]3O[C@H](CO)[C@@H](O[C@H]4O[C@@H](CN)[C@@H](O)[C@H](O)[C@H]4N)[C@H]3O)[C@@H](O)[C@H](NC(=O)[C@@H](O)[C@@H](O)CN)C[C@@H]2N)O1` [6/3], the MIC in experiment [1] was ≤ 1 µg/mL; in experiment [2] it was 1 to 16 µg/mL (≈ 1.4 to 22.4 µM).

Regarding `NC[C@@H]1C[C@@H](O)[C@@H](N)[C@@H](O[C@H]2[C@H](O[C@@H]3O[C@H](CO)[C@@H](O[C@H]4O[C@@H](CN)[C@@H](O)[C@H](O)[C@H]4N)[C@H]3O)[C@@H](O)[C@H](NC(=O)[C@@H](O)[C@H](F)CN)C[C@@H]2N)O1` [7/3], the values for the MIC in experiment [1] and in experiment [2] were ≤ 1 µg/mL and 1 to 16 µg/mL (≈ 1.39 to 22.3 µM), respectively.

With `NC[C@@H]1C[C@@H](O)[C@@H](N)[C@@H](O[C@H]2[C@H](O[C@@H]3O[C@H](CO)[C@@H](O[C@H]4O[C@@H](CN)[C@@H](O)[C@H](O)[C@H]4N)[C@H]3O)[C@@H](O)[C@H](NC(=O)[C@@H](O)C(F)(F)CN)C[C@@H]2N)O1` [8/3], the MIC in experiment [1] was ≤ 1 µg/mL; in experiment [2] it was 1 to 16 µg/mL (≈ 1.36 to 21.7 µM).
